For the experiment, the target named is T1, Danio rerio TREK-1 (Danio rerio, UniProt F1QAI2).
T1 sequence (F1QAI2 1-426): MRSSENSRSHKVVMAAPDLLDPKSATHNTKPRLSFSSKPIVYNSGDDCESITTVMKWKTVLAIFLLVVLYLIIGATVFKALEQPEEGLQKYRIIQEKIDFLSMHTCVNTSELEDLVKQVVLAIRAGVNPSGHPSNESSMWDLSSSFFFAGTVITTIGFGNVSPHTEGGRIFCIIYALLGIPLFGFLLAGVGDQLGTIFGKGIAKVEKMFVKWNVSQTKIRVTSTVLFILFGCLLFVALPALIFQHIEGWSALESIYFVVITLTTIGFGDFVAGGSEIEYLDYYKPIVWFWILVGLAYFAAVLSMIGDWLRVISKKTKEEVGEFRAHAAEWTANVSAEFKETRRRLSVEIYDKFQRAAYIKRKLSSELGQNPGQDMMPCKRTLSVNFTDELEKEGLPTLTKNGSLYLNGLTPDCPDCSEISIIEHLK
Description: Patch recording of Danio rerio TREK-1 from cultured cells. Format: biochemical. To be noted: IC50, Danio rerio TREK-1, patches. The procedure: For patch clamp recording from cultured cells, drTREK-1 or hsTRAAK genes were cloned into a modified pCEH vector to generate C-terminally EGFP-tagged constructs. HEK293T were cultured in DMEM (Gibco, Thermo Fisher Scientific) with 10% FBS and 100 U ml−1 penicillin and 100 μg ml−1 streptomycin. Trypsinized cells were deposited on 12-mm glass coverslips in a six-well dish one to two days before transfection. For transfection, drTREK-1 or hsTRAAK plasmids were mixed with FuGENE 6 in OptiMEM at a 1:3 ratio with 1 μg DNA per well per construct and applied to cells in growth medium with antibiotics. Patching was conducted from 24 to 60 h post-transfection. Coverslips were placed in a perfusion chamber at room temperature in isotonic bath solution: 135 mM NaCl, 15 mM KCl, 1 mM CaCl2, 1 mM MgCl2, 10 mM HEPES, adjusted to a final pH of 7.5 with NaOH. Cells were chosen by a combination of the presence GFP fluorescence and cell morphology consistent with healthy interphase cells. […]
Patches were evaluated with voltage-step protocols to confirm TRAAK expression and minimal non-specific leak based on reversal potential. Currents were recorded using an Axopatch 200B amplifier (Molecular Devices) at a bandwidth of 1 kHz and digitized with an Digidata 1550B (Molecular Devices) at 100–500 kHz using pClamp10.7 software. […] Data were analyzed using Clampfit 10.7, Excel, and Graphpad Prism software. […]

pIC50: −log10 of the molar value.

Consider one compound from article doi:10.1101/2024.12.09.627564, “Cannabinoid inhibition of mechanosensitive K^+ channels” (bioRxiv, 2024).

With `C=C(C)[C@@H]1CCC(C)=C[C@H]1c1c(O)cc(CCCCC)cc1O` [CBD, Cannabidiol], the negative logarithm of the IC50 (pIC50) is 4.95.
